# Assay results from US10294202B2, “Pyrrolidinones as herbicides” (FMC Corporation, priority 2013, dated 2019).
# What was measured:
# johnsongrass = assay: Test E preemergence herbicide test; format: in vivo, Sorghum halepense; design: key: 0 = no effect, 100 = complete control
# Excerpt: (§1) Seeds of plant species selected from corn (Zea mays), soybean (Glycine max), velvetleaf (Abutilon theophrasti), lambsquarters (Chenopodium album), wild poinsettia (Euphorbia heterophylla), pigweed, palmer (palmer pigweed, Amaranthus palmeri), waterhemp (common waterhemp, Amaranthus rudis), surinam grass (Brachiaria decumbens), crabgrass, large (large crabgrass, Digitaria sanguinalis), crabgrass, Brazil (Brazilian crabgrass, Digitaria horizontalis), panicum, fall (fall panicum, Panicum dichotomiflorum), foxtail, giant (giant foxtail, Setaria faberii), foxtail, green (green foxtail, Setaria viridis), goosegrass (Eleusine indica), johnsongrass (Sorghum halepense), ragweed (common ragweed, Ambrosia elatior), barnyardgrass (Echinochloa crus-galli), sandbur (southern sandbur, Cenchrus echinatus), arrowleaf […] rhombifolia), ryegrass, Italian (Italian ryegrass, Lolium multiflorum), dayflower, VA (Virginia dayflower, Commelina virginica), field bindweed (Convolvulus arvensis), morningglory (Ipomoea coccinea), nightshade (eastern black nightshade, Solanum ptycanthum), kochia (Kochia scoparia), nutsedge, yellow (yellow nutsedge, Cyperus esculentus), cocklebur (common cocklebur, Xanthium strumarium), smartweed (ladysthumb smartweed, Polygonum Persicaria) and beggarticks (hairy beggarticks, Bidens pilosa), were planted into a silt loam soil and treated preemergence with test chemicals formulated in a non-phytotoxic solvent mixture which included a surfactant. Treated plants and controls were maintained in a greenhouse for 21 days, after which time all species were compared to controls and visually evaluated. Plant response ratings, summarized in Table E, are based on a scale of 0 to 100 where 0 is no effect and 100 is complete control. A dash (-) response means no test result.
# lambsquarters = assay: Test E preemergence herbicide test; format: in vivo, Chenopodium album; design: key: 0 = no effect, 100 = complete control
# Excerpt: as §1
# pigweed, palmer = assay: Test E preemergence herbicide test; format: in vivo, Amaranthus palmeri; design: key: 0 = no effect, 100 = complete control
# Excerpt: as §1
# oilseed rape = assay: Test D pre-/postemergence herbicide test; format: in vivo, Brassica napus; details: for Plant response rating: Postemergence, Oilseed Rape, scale 0 to 100; for Plant response rating, Oilseed Rape: Preemergence, scale 0 to 100 (0 no effect, 100 complete control)
# Outline: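 Plants were sown in silt loam for preemergence spraying or in a peat moss/vermiculite mix for postemergence spraying at 2 to 18 cm height. Formulations used a non-phytotoxic solvent mixture with a surfactant. After 7 to 21 days, responses were scored visually from 0 (no effect) to 100 (complete control).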
# oat, wild = assay: Test D pre-/postemergence herbicide test; format: in vivo, Avena fatua; details: for Plant response rating: Postemergence, Oat, Wild, scale 0 to 100; for Plant response rating, Oat, Wild: Preemergence, scale 0 to 100 (0 no effect, 100 complete control)
# Excerpt: Seeds of plant species selected from bluegrass (annual bluegrass, Poa annua), blackgrass (Alopecurus myosuroides), canarygrass (littleseed canarygrass, Phalaris minor), chickweed (common chickweed, Stellaria media), galium (catchweed bedstraw, Galium aparine), bromegrass, downy (downy bromegrass, Bromus tectorum), field poppy (Papaver rhoeas), field violet (Viola arvensis), foxtail, green (green foxtail, Setaria viridis), deadnettle (henbit deadnettle, Lamium amplexicaule), ryegrass, Italian (Italian ryegrass, Lolium multiflorum), kochia (Kochia scoparia), lambsquarters (Chenopodium album), oilseed rape (Brassica napus), pigweed (Amaranthus retroflexus), chamomile (scentless chamomile, Matricaria inodora), Russian thistle (Salsola kali), speedwell (bird's-eye speedwell, Veronica persica), barley, spring (spring barley, Hordeum vulgare), wheat, spring (spring wheat, Triticum aestivum), buckwheat, wild (wild buckwheat, Polygonum convolvulus), mustard, wild (wild mustard, Sinapis arvensis), oat, wild (wild oat, Avena fatua), radish, wild (wild radish, Raphanus raphanistrum), […]), barley, winter (winter barley, Hordeum vulgare), and wheat, winter (winter wheat, Triticum aestivum) were planted into a silt loam soil and treated preemergence with test chemicals formulated in a non-phytotoxic solvent mixture which included a surfactant. At the same time, these species were planted in pots containing Redi-Earth® planting medium (Scotts Company, 14111 Scottslawn Road, Marysville, Ohio 43041) comprising spaghnum peat moss, vermiculite, wetting agent and starter nutrients and treated with postemergence applications of the test chemicals formulated in the same manner. Plants ranged in height from 2 to 18 cm (1- to 4-leaf stage). Treated plants and controls were maintained in a controlled growth environment for 7 to 21 days after which time all species were compared to controls and visually evaluated. Plant response ratings, summarized in Table D, are based on a scale of 0 to 100 where 0 is no effect and 100 is complete control. A dash (-) response means no test result.
# barnyardgrass = assay: Test F flood (paddy) test; format: in vivo, Echinochloa crus-galli; details: 21 d, scale 0-100
# Outline: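 Compounds were applied directly to paddy water held 3 cm above silt loam soil, with rice and weeds at the 2.0–2.5-leaf stage, grown in a greenhouse at 30/27° C under a 16-h photoperiod. Visual ratings (0 no effect to 100 complete control) were made against untreated controls after 21 d.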
Compound,"Plant response rating, Johnsongrass (johnsongrass; 16 g ai/ha)","Plant response rating, Johnsongrass (johnsongrass; 31 g ai/ha)","Plant response rating, Johnsongrass (johnsongrass; 62 g ai/ha)","Plant response rating, Johnsongrass (johnsongrass; 125 g ai/ha)","Plant response rating, Johnsongrass (johnsongrass; 250 g ai/ha)","Plant response rating, Lambsquarters (lambsquarters; 16 g ai/ha)","Plant response rating, Lambsquarters (lambsquarters; 31 g ai/ha)","Plant response rating, Lambsquarters (lambsquarters; 62 g ai/ha)","Plant response rating, Lambsquarters (lambsquarters; 125 g ai/ha)","Plant response rating, Lambsquarters (lambsquarters; 250 g ai/ha)","Plant response rating, Pigweed, Palmer (pigweed, palmer; 16 g ai/ha)","Plant response rating, Pigweed, Palmer (pigweed, palmer; 31 g ai/ha)","Plant response rating, Pigweed, Palmer (pigweed, palmer; 62 g ai/ha)","Plant response rating, Pigweed, Palmer (pigweed, palmer; 125 g ai/ha)","Plant response rating, Pigweed, Palmer (pigweed, palmer; 250 g ai/ha)",Plant response rating (oilseed rape; 31 g ai/ha),Plant response rating (oilseed rape; 62 g ai/ha),Plant response rating (oilseed rape; 125 g ai/ha),Plant response rating (oilseed rape; 250 g ai/ha),"Plant response rating (oat, wild; 31 g ai/ha)",also measured
O=C1NCC(c2ccc(Cl)c(Cl)c2)C1C(=O)Nc1ccccc1F (racemic) [Compound 14],0,0,0,0,0,0,0,0,50,70,0,0,0,0,0,–,–,–,–,–,–
O=C1NCC(c2ccc(C(F)(F)F)cc2)C1C(=O)Nc1cccc(F)c1F (racemic) [Compound 202],–,0,0,20,25,–,0,98,98,98,–,0,70,85,80,60,70,60,55,5,"Plant response rating, Oilseed Rape (oilseed rape; 62 g ai/ha): 35; Plant response rating, Oilseed Rape (oilseed rape; 125 g ai/ha): 45; Plant response rating, Oilseed Rape (oilseed rape; 31 g ai/ha): 0; Plant response rating, Oilseed Rape (oilseed rape; 250 g ai/ha): 75; Plant response rating (oat, wild; 62 g ai/ha): 10; Plant response rating (oat, wild; 125 g ai/ha): 10; Plant response rating (oat, wild; 250 g ai/ha): 15; Plant response rating, Oat, Wild (oat, wild; 62 g ai/ha): 20; Plant response rating, Oat, Wild (oat, wild; 125 g ai/ha): 35; Plant response rating, Oat, Wild (oat, wild; 31 g ai/ha): 5; Plant response rating, Oat, Wild (oat, wild; 250 g ai/ha): 40"
O=C1NCC(c2ccc(OC(F)F)cc2)C1C(=O)Nc1cccc(F)c1F (racemic) [Compound 350],–,0,0,0,0,–,80,60,98,95,–,0,0,35,35,–,–,–,–,–,–
"O=C1NCCC1C(=O)N(c1ccc(F)c(F)c1)c1ccccc1F (stereo not shown) [Compound 5, N-(3,4-difluorophenyl)-N-(2-fluorophenyl)-2-oxo-3-pyrrolidinecarboxamide]",–,–,–,–,–,–,–,–,–,–,–,–,–,–,–,–,–,–,–,–,"Plant response rating, Barnyardgrass (barnyardgrass; 125 g ai/ha): 55; Plant response rating, Barnyardgrass (barnyardgrass; 250 g ai/ha): 65; Plant response rating, Barnyardgrass (barnyardgrass; 500 g ai/ha): 75; Plant response rating, Barnyardgrass (barnyardgrass; 1000 g ai/ha): 90; Plant response rating, Barnyardgrass (barnyardgrass; 2000 g ai/ha): 90"
"O=C1NCC(c2ccc(F)c(F)c2)C1C(=O)Nc1cccc(F)c1F (stereo not shown) [Compound 17, N-(2,3-difluorophenyl)-4-(3,4-difluorophenyl)-2-oxo-3-pyrrolidinecarboxamide]",0,0,0,0,0,0,0,0,0,0,0,0,0,0,0,0,10,20,40,0,"Plant response rating (oilseed rape; 16 g ai/ha): 0; Plant response rating, Barnyardgrass (barnyardgrass; 125 g ai/ha): 90; Plant response rating, Barnyardgrass (barnyardgrass; 250 g ai/ha): 90; Plant response rating, Barnyardgrass (barnyardgrass; 500 g ai/ha): 90; Plant response rating, Barnyardgrass (barnyardgrass; 1000 g ai/ha): 95; Plant response rating, Barnyardgrass (barnyardgrass; 2000 g ai/ha): 100; Plant response rating (oat, wild; 16 g ai/ha): 0; Plant response rating (oat, wild; 62 g ai/ha): 0; Plant response rating (oat, wild; 125 g ai/ha): 0; Plant response rating (oat, wild; 250 g ai/ha): 0"
"O=C1NCC(c2ccc(C(F)(F)F)cc2)C1C(=O)Nc1cccc(F)c1F (stereo not shown) [Compound 80, N-(2,3-difluorophenyl)-2-oxo-4-[4-(trifluoromethyl)phenyl]-3-pyrrolidinecarboxamide]",0,0,0,10,30,50,80,85,90,90,0,0,–,65,90,30,50,45,60,10,"Plant response rating, Oilseed Rape (oilseed rape; 62 g ai/ha): 10; Plant response rating, Oilseed Rape (oilseed rape; 125 g ai/ha): 10; Plant response rating, Oilseed Rape (oilseed rape; 31 g ai/ha): 0; Plant response rating, Oilseed Rape (oilseed rape; 250 g ai/ha): 30; Plant response rating (oat, wild; 62 g ai/ha): 10; Plant response rating (oat, wild; 125 g ai/ha): 5; Plant response rating (oat, wild; 250 g ai/ha): 10; Plant response rating, Oat, Wild (oat, wild; 62 g ai/ha): 5; Plant response rating, Oat, Wild (oat, wild; 125 g ai/ha): 10; Plant response rating, Oat, Wild (oat, wild; 31 g ai/ha): 0; Plant response rating, Oat, Wild (oat, wild; 250 g ai/ha): 20"
CN1CC(c2ccc(F)c(F)c2)C(C(=O)Nc2cccc(F)c2F)C1=O (stereo not shown) [Compound 303],–,–,–,–,–,–,–,–,–,–,–,–,–,–,–,–,–,–,–,–,"Plant response rating, Barnyardgrass (barnyardgrass; 62 g ai/ha): 100; Plant response rating, Barnyardgrass (barnyardgrass; 125 g ai/ha): 100; Plant response rating, Barnyardgrass (barnyardgrass; 250 g ai/ha): 100; Plant response rating, Barnyardgrass (barnyardgrass; 500 g ai/ha): 100"
